Patent publication US9993001B2, “Herbicidal composition” (ISHIHARA SANGYO KAISHA, LTD., priority 2014, dated 2018)

Legend:
Type in all cases: in vivo
[1] = test system: barnyardgrass (Echinochloa crus-qalli L.); assay: Test Example 21: pot, soil treatment, metobromuron + prometryn; details: soil, read-out: Growth inhibition rate of barnyardgrass (%) Measured value
Source text: (§1) When the herbicidal activity in a case where two active ingredients are combined, is larger than the simple sum of the respective herbicidal activities of the two active ingredients (the expected activity), it is called a synergistic effect. The activity expected by the combination of two active ingredients can be calculated as follows (Colby S. R., “Weed”, vol. 15, p. 20-22, 1967). E=α+β−(α×β[…]) where α: growth inhibition rate when treated with x (g/ha) of herbicide X, • β: growth inhibition rate when treated with y (g/ha) of herbicide Y, • E: growth inhibition rate expected when treated with x (g/ha) of herbicide X and y (g/ha) of herbicide Y.
(§2) On the 19th day after treatment, the state of growth of barnyardgrass was visually observed and evaluated in accordance with the following standards. The growth inhibition rate (%) [measured value] and the growth inhibition rate (%) [calculated value] calculated by the Colby's method, are shown in Table 2.
(§3) Growth inhibition rate (%)=inhibition rate) (%) of 0 (equivalent to the non-treated area) to 100 (complete kill)
(§4) Soil was put into a 1/300,000 ha pot, and seeds of barnyardgrass (Echinochloa crus-qalli L.) were sown. On the day after seeding, predetermined amounts of SC containing metobromuron as active ingredient (same as in Test Example 1) and WP containing prometryn as active ingredient (trade name: Gesagard 50, manufactured by Nippon Kayaku Co., Ltd.) were diluted with water corresponding to 1,000 L per hectare and applied for soil treatment.
(§5) On the 21st day after treatment, the state of growth of barnyardgrass was visually observed and evaluated in the same manner as in Test Example 1.

[2] = test system: large crabgrass (Diqitaria sanquinalis L.); assay: Test Example 11: corn field, foliar treatment, metobromuron + nicosulfuron; details: Digitaria sanguinalis, foliar, read-out: Growth inhibition rate of large crabgrass (%) Measured value
Source text: as §1, §2
Growth inhibition rate (%)=inhibition rate) (%) of 0 (equivalent to the non-treated area) to 100 (complete kill) […]
On the 30th day after treatment, the state of growth of large crabgrass was visually observed and evaluated in the same manner as in Test Example 1.

[3] = test system: large crabgrass (Diqitaria sanquinalis L.); assay: Test Example 22: pot, soil treatment, metobromuron + prometryn; details: Digitaria sanguinalis, soil, read-out: Growth inhibition rate of large crabgrass (%) Measured value
Source text: as §1, §2, §3, §4, §5
The test was carried out in the same manner as in Test Example 21 except that barnyardgrass (Echinochloa crus-qalli L.) was changed to large crabgrass (Diqitaria sanquinalis L.), to obtain the results as shown in Table 23.

[4] = test system: large crabgrass (Digitaria sanquinalis L.); assay: Test Example 28: pot, soil treatment, metobromuron + pendimethalin; details: soil, read-out: Growth inhibition rate of large crabgrass (%) Measured value
Source text: as §1, §2, §3
(§6) Soil was put into a 1/300,000 ha pot, and seeds of large crabgrass (Digitaria sanquinalis L.) were sown. On the day after seeding, predetermined amounts of SC containing metobromuron as active ingredient (same as in Test Example 1) and EC containing pendimethalin as active ingredient (same as in Test Example 10) were diluted with water corresponding to 1,000 L per hectare and applied for soil treatment.
On the 27th day after treatment, the state of growth of large crabgrass was visually observed and evaluated in the same manner as in Test Example 1.

[5] = test system: black nightshade (Solanum nigrum L.); assay: Test Example 27: pot, soil treatment, metobromuron + flufenacet; details: soil, read-out: Growth inhibition rate of black nightshade (%) Measured value
Source text: as §1, §2, §3
as §6, with “black nightshade (Solanum nigrum” for “large crabgrass (Digitaria sanquinalis”, “prosulfocarb” for “pendimethalin”, “(trade name: BOXER NYUZAI, manufactured by Syngenta)” for “(same as in Test Example 10)”
On the 21st day after treatment, the state of growth of black nightshade was visually observed and evaluated in the same manner as in Test Example 1.
The test was carried out in the same manner as in Test Example 26 except that EC containing prosulfocarb as active ingredient was changed to SC containing flufenacet as active ingredient (trade name: Cadou, manufactured by Bayer CropScience), to obtain the results as shown in Table 28.

[6] = test system: common lambsquarters (Chenopodium album L.); assay: Test Example 30: pot, soil treatment, metobromuron + thiobencarb; details: soil, read-out: Growth inhibition rate of common lambsquarters (%) Measured value
Source text: as §1, §2, §3
as §4, with “common lambsquarters (Chenopodium album” for “barnyardgrass (Echinochloa crus-qalli”, “EC” for “WP”, “thiobencarb” for “prometryn”, “Saturn NYUZAI,” for “Gesagard 50,”, “KUMIAI CHEMICAL INDUSTRY” for “Nippon Kayaku”
(§7) On the 20th day after treatment, the state of growth of common lambsquarters was visually observed and evaluated in the same manner as in Test Example 1.

[7] = test system: common chickweed (Stellaria media L.); assay: Test Example 25: pot, soil treatment, metobromuron + trifluralin; details: soil, read-out: Growth inhibition rate of common chickweed (%) Measured value
[8] = test system: black nightshade (Solanum nigrum L.); assay: Test Example 31: pot, soil treatment, metobromuron + thiobencarb; details: soil, read-out: Growth inhibition rate of black nightshade (%) Measured value
Source text: as §1, §2, §3
as §4, with “common lambsquarters (Chenopodium album” for “barnyardgrass (Echinochloa crus-qalli”, “EC” for “WP”, “thiobencarb” for “prometryn”, “Saturn NYUZAI,” for “Gesagard 50,”, “KUMIAI CHEMICAL INDUSTRY” for “Nippon Kayaku”
as §7
The test was carried out in the same manner as in Test Example 30 except that common lambsquarters (Chenopodium album L.) was changed to black nightshade (Solanum nigrum L.), to obtain the results as shown in Table 32.

[9] = test system: common lambsquarters (Chenopodium album L.); assay: Test Example 24: pot, soil treatment, metobromuron + trifluralin; details: soil, read-out: Growth inhibition rate of common lambsquarters (%) Measured value
Source text: as §1, §2, §3
as §6, with “common lambsquarters (Chenopodium album” for “large crabgrass (Digitaria sanquinalis”, “trifluralin” for “pendimethalin”, “4)” for “10)”
On the 21st day after treatment, the state of growth of common lambsquarters was visually observed and evaluated in the same manner as in Test Example 1.

Work on `CON(C)C(=O)Nc1ccc(Br)cc1` [Metobromuron, 3-(4-bromophenyl)-1-methoxy-1-methylurea] yielded an inhibition at 750 g/ha [1] of 20%, an inhibition at 1000 g/ha [1] of 43% and an inhibition at 1500 g/ha [1] of 72%. For the same compound, the inhibition at 1000 g/ha [2] was 25%, the inhibition at 750 g/ha [3] was 33% and the inhibition at 1000 g/ha [3] was 50%. The inhibition at 62.5 g/ha [4] was 0%, the inhibition at 125 g/ha [4] was 15% and the inhibition at 250 g/ha [4] was 35%. For the same compound, the inhibition at 250 g/ha [5] was 25%, the inhibition at 375 g/ha [5] was 50% and the inhibition at 562.5 g/ha [5] was 68%. For the same compound, the inhibition at 250 g/ha [6] was 78%, the inhibition at 250 g/ha [7] was 73% and the inhibition at 375 g/ha [8] was 65%. The inhibition at 562.5 g/ha [8] was 76% and the inhibition at 375 g/ha [9] was 50%.
